Laboratory results from the NIST ThermoML archive (doi:10.1021/acs.jced.8b00132).
Where “and” joins values, the source holds several entries; their conditions need not be identical. Identical values can stand only once.

O=C(C(F)(F)C(F)(F)F)C(F)(C(F)(F)F)C(F)(F)F [dodecafluoro-2-methylpentan-3-one]
Conditions	thermal conductivity
303.37 K, 4422 kPa, Liquid, transient hot wire	0.05844 W/m/K
303.37 K, 4436 kPa, Liquid, transient hot wire	0.05841 W/m/K
303.38 K, 22430 kPa, Liquid, transient hot wire	0.06522 W/m/K
303.38 K, 22431 kPa, Liquid, transient hot wire	0.06529 W/m/K
303.46 K, 36 kPa, Gas, transient hot wire	0.01187 W/m/K
303.46 K, 38 kPa, Gas, transient hot wire	0.01198 W/m/K
303.46 K, 91 kPa, Liquid, transient hot wire	0.05636 W/m/K
303.46 K, 92 kPa, Liquid, transient hot wire	0.05637 W/m/K
311.78 K, 60 kPa, Gas, transient hot wire	0.01276 W/m/K
311.78 K, 63 kPa, Gas, transient hot wire	0.01265 W/m/K
311.79 K, 63 kPa, Gas, transient hot wire	0.01255 W/m/K
311.95 K, 34 kPa, Gas, transient hot wire	0.01258 W/m/K
312.1 K, 61 kPa, Gas, transient hot wire	0.01276 W/m/K
312.11 K, 63 kPa, Gas, transient hot wire	0.0127 W/m/K
312.12 K, 63 kPa, Gas, transient hot wire	0.01261 W/m/K
312.3 K, 34 kPa, Gas, transient hot wire	0.01253 W/m/K
312.43 K, 61 kPa, Gas, transient hot wire	0.01283 W/m/K
312.43 K, 63 kPa, Gas, transient hot wire	0.01278 W/m/K
312.46 K, 63 kPa, Gas, transient hot wire	0.01291 W/m/K
312.66 K, 34 kPa, Gas, transient hot wire	0.01257 W/m/K
312.81 K, 61 kPa, Gas, transient hot wire	0.01287 W/m/K
312.81 K, 63 kPa, Gas, transient hot wire	0.01297 W/m/K
312.83 K, 63 kPa, Gas, transient hot wire	0.01281 W/m/K
313.06 K, 34 kPa, Gas, transient hot wire	0.01264 W/m/K
313.22 K, 61 kPa, Gas, transient hot wire	0.01297 W/m/K
313.22 K, 63 kPa, Gas, transient hot wire	0.01291 W/m/K
313.24 K, 63 kPa, Gas, transient hot wire	0.01285 W/m/K
313.49 K, 34 kPa, Gas, transient hot wire	0.01265 W/m/K
315 K, 42 kPa, Gas, hot wire	0.01266 W/m/K and 0.01273 W/m/K
315.01 K, 24 kPa, Gas, hot wire	0.01262 W/m/K and 0.01267 W/m/K
315.03 K, 68 kPa, Gas, hot wire	0.01269 W/m/K
315.05 K, 69 kPa, Gas, hot wire	0.01239 W/m/K
315.06 K, 73 kPa, Gas, hot wire	0.01282 W/m/K
315.08 K, 73 kPa, Gas, hot wire	0.0128 W/m/K
315.18 K, 42 kPa, Gas, hot wire	0.0127 W/m/K
315.19 K, 24 kPa, Gas, hot wire	0.01259 W/m/K
315.23 K, 68 kPa, Gas, hot wire	0.01265 W/m/K
315.26 K, 68 kPa, Gas, hot wire	0.01263 W/m/K
315.26 K, 73 kPa, Gas, hot wire	0.01275 W/m/K and 0.01272 W/m/K
315.38 K, 24 kPa, Gas, hot wire	0.01262 W/m/K
315.39 K, 24 kPa, Gas, hot wire	0.01261 W/m/K
315.39 K, 42 kPa, Gas, hot wire	0.01258 W/m/K and 0.0126 W/m/K
315.45 K, 73 kPa, Gas, hot wire	0.01275 W/m/K and 0.01277 W/m/K
315.48 K, 67 kPa, Gas, hot wire	0.01259 W/m/K
315.48 K, 68 kPa, Gas, hot wire	0.01258 W/m/K
315.6 K, 24 kPa, Gas, hot wire	0.01263 W/m/K
315.6 K, 42 kPa, Gas, hot wire	0.01262 W/m/K
315.61 K, 41 kPa, Gas, hot wire	0.01258 W/m/K
315.65 K, 73 kPa, Gas, hot wire	0.01278 W/m/K
315.66 K, 73 kPa, Gas, hot wire	0.01275 W/m/K
315.7 K, 67 kPa, Gas, hot wire	0.01258 W/m/K and 0.01255 W/m/K
315.82 K, 24 kPa, Gas, hot wire	0.01264 W/m/K and 0.01263 W/m/K
315.84 K, 41 kPa, Gas, hot wire	0.01259 W/m/K
315.85 K, 42 kPa, Gas, hot wire	0.01252 W/m/K
315.87 K, 73 kPa, Gas, hot wire	0.01277 W/m/K and 0.01278 W/m/K
315.91 K, 67 kPa, Gas, hot wire	0.01259 W/m/K
315.92 K, 67 kPa, Gas, hot wire	0.01258 W/m/K
321.61 K, 79 kPa, Gas, transient hot wire	0.01361 W/m/K
321.66 K, 65 kPa, Gas, transient hot wire	0.01365 W/m/K
321.69 K, 64 kPa, Gas, transient hot wire	0.01346 W/m/K
321.92 K, 78 kPa, Gas, transient hot wire	0.01359 W/m/K
321.97 K, 66 kPa, Gas, transient hot wire	0.01368 W/m/K
322.01 K, 64 kPa, Gas, transient hot wire	0.01355 W/m/K
322.24 K, 77 kPa, Gas, transient hot wire	0.01349 W/m/K
322.3 K, 66 kPa, Gas, transient hot wire	0.01358 W/m/K
322.35 K, 64 kPa, Gas, transient hot wire	0.01367 W/m/K
322.6 K, 77 kPa, Gas, transient hot wire	0.0137 W/m/K
322.68 K, 66 kPa, Gas, transient hot wire	0.01369 W/m/K
322.7 K, 62 kPa, Gas, transient hot wire	0.01363 W/m/K
322.99 K, 77 kPa, Gas, transient hot wire	0.01375 W/m/K
323.07 K, 66 kPa, Gas, transient hot wire	0.01363 W/m/K
323.09 K, 62 kPa, Gas, transient hot wire	0.0139 W/m/K
329.07 K, 105 kPa, Gas, hot wire	0.01379 W/m/K and 0.0138 W/m/K
329.1 K, 72 kPa, Gas, hot wire	0.01387 W/m/K
329.1 K, 73 kPa, Gas, hot wire	0.01371 W/m/K and 0.01367 W/m/K
329.12 K, 72 kPa, Gas, hot wire	0.01364 W/m/K
329.19 K, 27 kPa, Gas, hot wire	0.01341 W/m/K
329.19 K, 120 kPa, Gas, hot wire	0.01389 W/m/K
329.2 K, 26 kPa, Gas, hot wire	0.01335 W/m/K
329.21 K, 120 kPa, Gas, hot wire	0.01385 W/m/K
329.22 K, 27 kPa, Gas, hot wire	0.01411 W/m/K
329.23 K, 26 kPa, Gas, hot wire	0.014 W/m/K
329.23 K, 105 kPa, Gas, hot wire	0.01384 W/m/K and 0.01389 W/m/K
329.25 K, 72 kPa, Gas, hot wire	0.01368 W/m/K
